{"source": "patent US20060270629A1", "about": "“Methanocarba cycloalkyl nucleoside analogues” (Govt of the U.S.A., represented by the Secretary, Dept of …, priority 2000, published 2006)", "key": {"[1]": {"target": "turkey erythrocyte P2Y1 receptors (Meleagris gallopavo, UniProt P49652)", "sequence (P49652 whole entry)": "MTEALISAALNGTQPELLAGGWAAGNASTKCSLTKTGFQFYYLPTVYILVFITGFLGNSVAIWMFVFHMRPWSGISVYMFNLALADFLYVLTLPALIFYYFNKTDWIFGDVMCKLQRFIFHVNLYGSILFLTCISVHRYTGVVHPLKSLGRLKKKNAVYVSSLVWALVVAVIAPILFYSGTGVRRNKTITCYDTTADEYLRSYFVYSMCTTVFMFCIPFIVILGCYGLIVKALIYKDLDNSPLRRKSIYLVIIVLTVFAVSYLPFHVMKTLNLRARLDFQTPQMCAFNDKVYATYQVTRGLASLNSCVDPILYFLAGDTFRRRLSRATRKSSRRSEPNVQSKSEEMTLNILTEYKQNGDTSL", "assay": "PLC (inositol phosphate formation) assay in turkey erythrocyte membranes", "conditions": "for agonist or antagonist character at P2Y1 receptors: PLC assay", "protocol": "Concentration-response curves were determined for each compound alone and in combination with 10 nM 2-MeSADP.\nP2Y1 receptor promoted stimulation of inositol phosphate formation by adenine nucleotide analogues was measured in turkey erythrocyte membranes as previously described. […] Erythrocyte ghosts were prepared by rapid lysis in hypotonic buffer (5 mM sodium phosphate, pH 7.4, 5 mM MgCl2, 1 mM EGTA) as described. […] Assays (200 μL final volume) contained 1 μM GTPγS and the indicated concentrations of nucleotide analogues. Ghosts were incubated at 30° C. for 5 min, and total [^3H]inositol phosphates were quantitated by anion exchange chromatography as previously described.^7,36\nAgonist potencies were calculated using a four-parameter logistic equation and the GraphPad software package (GraphPad, San Diego, Calif.)."}, "[2]": {"target": "T1, rat A1 receptors (Rattus norvegicus, UniProt P25099)", "T1 sequence (P25099 1-326)": "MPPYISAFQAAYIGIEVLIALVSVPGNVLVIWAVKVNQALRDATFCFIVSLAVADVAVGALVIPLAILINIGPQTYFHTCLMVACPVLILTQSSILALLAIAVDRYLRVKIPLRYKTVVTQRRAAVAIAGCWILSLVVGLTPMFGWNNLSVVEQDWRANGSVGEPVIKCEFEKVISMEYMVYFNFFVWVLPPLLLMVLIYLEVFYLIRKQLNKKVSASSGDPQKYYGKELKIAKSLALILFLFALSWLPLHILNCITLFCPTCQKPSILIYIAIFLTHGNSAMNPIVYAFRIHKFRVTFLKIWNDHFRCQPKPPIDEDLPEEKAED", "assay": "Radioligand binding at rat A1 adenosine receptors", "conditions": "for Ki: rat A1 receptors, read-out: K1 (nM), rA1", "protocol": "(§1) Bound and free ligands were separated by rapid filtration of the reaction mixture through Whatman GF/B glass filters. The filters were immediately washed with two 5 ml-portions of ice-cold 50 mM Tris.HCl buffer (pH 7.4). The radioactivity bound to the filters was determined in a Beckman gamma counter."}, "[3]": {"target": "rat A2A receptors (Rattus norvegicus, UniProt P30543)", "sequence (P30543 whole entry)": "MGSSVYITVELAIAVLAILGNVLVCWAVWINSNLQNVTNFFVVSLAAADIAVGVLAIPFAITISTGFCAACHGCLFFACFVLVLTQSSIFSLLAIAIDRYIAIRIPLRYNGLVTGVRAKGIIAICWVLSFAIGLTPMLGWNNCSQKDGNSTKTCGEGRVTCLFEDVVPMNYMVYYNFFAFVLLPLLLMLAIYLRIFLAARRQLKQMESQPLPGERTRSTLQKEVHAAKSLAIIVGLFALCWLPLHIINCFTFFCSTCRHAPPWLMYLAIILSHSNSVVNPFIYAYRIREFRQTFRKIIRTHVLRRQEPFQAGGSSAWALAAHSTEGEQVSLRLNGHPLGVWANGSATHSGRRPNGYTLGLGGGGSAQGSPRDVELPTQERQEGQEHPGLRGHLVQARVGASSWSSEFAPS", "assay": "Radioligand binding at rat A2A adenosine receptors", "conditions": "for Ki: read-out: K1 (nM), rA2A", "protocol": "as §1"}, "[4]": {"target": "T2, human A3 receptors (Homo sapiens, UniProt P0DMS8)", "T2 sequence (P0DMS8 1-318)": "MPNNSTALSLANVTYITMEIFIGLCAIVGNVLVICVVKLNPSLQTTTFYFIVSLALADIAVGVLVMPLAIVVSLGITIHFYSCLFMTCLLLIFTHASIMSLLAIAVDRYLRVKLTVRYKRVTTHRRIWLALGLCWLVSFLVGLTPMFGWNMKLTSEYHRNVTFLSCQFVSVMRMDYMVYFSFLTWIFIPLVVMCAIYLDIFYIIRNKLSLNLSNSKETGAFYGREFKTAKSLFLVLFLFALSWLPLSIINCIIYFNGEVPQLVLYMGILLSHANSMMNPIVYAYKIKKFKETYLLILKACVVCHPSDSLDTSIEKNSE", "assay": "A3 adenosine receptor binding using [125I]AB-MECA, transfected CHO cell membranes", "conditions": "for Ki: human A3 receptors, read-out: K1 (nM), hA3; for A1/A3: ratio of Ki at rat A1 to Ki at A3 (human, or rat where marked (r))", "protocol": "The final pellets were resuspended in 50 mM Tris.HCl buffer, pH 7.4, containing 10 mM MgCl2 and 0.1 mM EDTA and stored at -70° C. […] The total volume of the reaction mixture was 125 μl. Bound and free ligands were separated by rapid filtration of the reaction mixture through Whatman GF/B glass filters. The filters were immediately washed with two 5 ml-portions of ice-cold 50 mM Tris.HCl buffer (pH 7.4). The radioactivity bound to the filters was determined in a Beckman gamma counter."}, "[5]": {"target": "T3, cloned hA3AR (Homo sapiens, UniProt P0DMS8)", "T3 sequence (P0DMS8 1-318)": "T2 sequence (P0DMS8 1-318)", "assay": "Stimulation of [35S]GTPγS binding, CHO cell membranes expressing cloned hA3AR", "conditions": "for EC50: stimulation of basal [35S]GTPγS binding, n = 3", "protocol": "(§2) CHO cells stably transfected with either human A1 or A3 receptors (gift of Dr. Gary Stiles and Dr. Mark Olah, Duke University Medical Center) were cultured as monolayers in medium supplemented with 10% fetal bovine serum. […] The final pellets were resuspended in 50 mM Tris.HCl buffer, pH 7.4, containing 10 mM MgCl2 and 0.1 mM EDTA and stored at −70° C.\n(§3) After transferring the filters into a vial containing 3 ml of scintillation cocktail, the radioactivity was determined in a scintillation counter.\n(§4) Binding of [^35S]GTP-γ-S was studied in membranes prepared from CHO cells stably expressing human A1 or A3 receptors (Table 2)."}, "[6]": {"target": "T4, rA1AR (Rattus norvegicus, UniProt P25099)", "T4 construct": "in rat cerebral cortical membranes containing the A1AR; from tissue; host or cells: rat cerebral cortical membranes", "T4 sequence (P25099 1-326)": "T1 sequence (P25099 1-326)", "assay": "Stimulation of [35S]GTPγS binding, rat cerebral cortical membranes containing the A1AR", "type": "biochemical", "conditions": "for Emax: read-out: rA1AR % Maximal Stimulation", "protocol": "as §3"}, "[7]": {"target": "T5, cloned hA1AR (Homo sapiens, UniProt P30542)", "T5 sequence (P30542 1-326)": "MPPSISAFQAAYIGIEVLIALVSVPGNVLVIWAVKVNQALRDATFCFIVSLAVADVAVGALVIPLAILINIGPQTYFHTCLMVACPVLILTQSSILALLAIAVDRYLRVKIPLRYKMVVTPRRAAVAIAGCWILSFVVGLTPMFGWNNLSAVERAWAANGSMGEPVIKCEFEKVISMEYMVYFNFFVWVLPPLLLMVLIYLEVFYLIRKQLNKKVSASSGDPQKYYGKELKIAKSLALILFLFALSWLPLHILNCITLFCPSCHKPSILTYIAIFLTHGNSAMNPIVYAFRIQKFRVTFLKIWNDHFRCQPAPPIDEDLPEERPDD", "assay": "Stimulation of [35S]GTPγS binding, CHO cell membranes expressing cloned hA1AR", "conditions": "for Emax: read-out: cloned hA1AR % Maximal Stimulation", "protocol": "as §2, §3, §4"}, "[8]": {"conditions": "IC50, antagonists, P2Y1 receptors"}, "[9]": {"conditions": "IC50, μM, inhibition of the effect elicited by 10 nM 2-MeSADP"}, "[10]": {"conditions": "read-out: Antagonist Effect, % of maximal inhibition"}, "[11]": {"conditions": "read-out: cloned hA1AR EC50, stimulation of basal [35S]GTPγS binding, n = 3"}}, "note": "Where a name gives a salt, the structure may show the parent alone. Read-outs that look alike come from different tables or passages of the source.", "data": [{"smiles": "CNc1ncnc2c1ncn2[C@H]1C[C@H](OP(=O)(O)O)C2(COP(=O)(O)O)C[C@H]12", "note": "(stereo partly drawn) [Compound 4b, (1R,2S,4S,5S)-1-[(phosphato)methyl]-4-(6-methylaminopurin-9-yl)bicyclo[[3.1.0.]-hexane-2-phosphatetetraammoniun salt]", "values": [{"measurement": "IC50", "setting": "[1]; [8]", "value": 0.276, "unit": "µM"}, {"measurement": "IC50", "setting": "[1]; [9]", "value": "0.157 ± 0.06", "unit": "µM"}, {"measurement": "agonist or antagonist character at P2Y1 receptors", "setting": "[1]", "value": "antagonists"}, {"measurement": "inhibition at 100 µM", "setting": "[1]; [10]", "value": 100, "unit": "%"}]}, {"smiles": "CNc1ncnc2c1ncn2[C@H]1C[C@H](OP(=O)(O)O)[C@]2(COP(=O)(O)O)C[C@H]12", "note": "[Compound 4b, (1R,2S,4S,5S)-1-[(phosphato)methyl]-4-(6-methylaminopurin-9-yl)bicyclo[[3.1.0.]-hexane-2-phosphatetetraammoniun salt]", "values": [{"measurement": "Ki", "setting": "[2]", "value": "141 ± 22", "unit": "nM"}, {"measurement": "Ki", "setting": "[3]", "value": "732 ± 207", "unit": "nM"}, {"measurement": "Ki", "setting": "[4]", "value": "2.24 ± 1.45", "unit": "nM"}]}, {"smiles": "CNc1nc(Cl)nc2c1ncn2[C@H]1C[C@H](OP(=O)(O)O)C2(COP(=O)(O)O)C[C@H]12", "note": "(stereo partly shown) [Compound 4c, (N)-Methanocarba-N^6-methyl-2-chloro-2′-deoxyadenosine-3′,5′-bis(diammonium phosphate)]", "values": [{"measurement": "IC50", "setting": "[1]; [8]", "value": 0.053, "unit": "µM"}, {"measurement": "IC50", "setting": "[1]; [9]", "value": "0.0516 ± 0.0008", "unit": "µM"}, {"measurement": "agonist or antagonist character at P2Y1 receptors", "setting": "[1]", "value": "antagonists"}, {"measurement": "inhibition at 100 µM", "setting": "[1]; [10]", "value": 100, "unit": "%"}]}, {"smiles": "CNc1nc(Cl)nc2c1ncn2[C@H]1C[C@H](OP(=O)(O)O)[C@]2(COP(=O)(O)O)C[C@H]12", "note": "[Compound 4c, (N)-Methanocarba-N^6-methyl-2-chloro-2′-deoxyadenosine-3′,5′-bis(diammonium phosphate)]", "values": [{"measurement": "Ki", "setting": "[2]", "value": "8730 ± 370", "unit": "nM"}, {"measurement": "Ki", "setting": "[3]", "value": 25400, "unit": "nM"}]}, {"smiles": "Nc1ncnc2c1ncn2[C@@]12C[C@H](OP(=O)(O)O)[C@@H](COP(=O)(O)O)[C@@H]1C2", "note": "[Compound 5, (1S,3S,4R,5S)-4-[(phosphato)methyl]-1-(6-aminopurin-9-yl)bicyclo[3.1.0]-hexane-3-phosphate tetraammonium salt]", "values": [{"measurement": "EC50", "setting": "[1]", "value": 13300, "unit": "nM"}, {"measurement": "agonist or antagonist character at P2Y1 receptors", "setting": "[1]", "value": "agonist"}, {"measurement": "IC50, μM", "setting": "[1]; inhibition of the effect elicited by 10 nM 2-MeSADP", "value": "small decrease"}, {"measurement": "inhibition at 100 µM", "setting": "[1]; read-out: Antagonist Effect, % inhibition at 100 μM", "value": 34, "unit": "%"}, {"measurement": "Agonist Effect, % of maximal increase", "setting": "[1]; relative to maximal effective concentration of 2-MeSADP, NE = no effect at 100 μM", "value": "41 ± 13", "unit": "%"}]}, {"smiles": "OC[C@H]1O[C@@H](n2cnc3c(NC4CCCC4)ncnc32)[C@H](O)[C@@H]1O", "note": "[Compound 6a, CPA, reference compound]", "values": [{"measurement": "Ki", "setting": "[4]", "value": "274 ± 20", "unit": "nM"}, {"measurement": "cloned hA3AR % Maximal Stimulation", "setting": "[5]; [35S]GTPγS binding", "value": 100, "unit": "%"}, {"measurement": "EC50", "setting": "[5]; read-out: cloned hA3AR EC50", "value": "7980 ± 60", "unit": "nM"}]}, {"smiles": "OCC12CC1C(n1cnc3c(NC4CCCC4)ncnc31)C(O)C2O", "note": "[Compound 6c, (1′R,2R,3′R,4′R,1′aR)-2,3-(dihydroxy)-4-(hydroxymethyl)-1-(6-cyclopentylaminopurine-9-yl)bicyclo(3.1.0)hexane)]", "values": [{"measurement": "Ki", "setting": "[2]", "value": "5.06 ± 0.51", "unit": "nM"}, {"measurement": "affinity at rat A1 receptors, fold less than for 6a", "setting": "[2]; versus 6a", "value": 3, "unit": "fold"}, {"measurement": "Ki", "setting": "[3]", "value": "6800 ± 1800", "unit": "nM"}, {"measurement": "Ki", "setting": "[4]", "value": "170 ± 51", "unit": "nM"}, {"measurement": "A1/A3", "setting": "[4]", "value": 0.030}, {"measurement": "EC50", "setting": "[6]", "value": "100 ± 17", "unit": "nM"}, {"measurement": "Emax", "setting": "[6]", "value": "75 ± 6", "unit": "%"}, {"measurement": "EC50", "setting": "[7]", "value": "21.5 ± 2.3", "unit": "nM"}, {"measurement": "agonist efficacy at human A1 receptors", "setting": "[7]; [35S]GTPγS binding", "value": "full agonist"}, {"measurement": "Emax", "setting": "[7]", "value": "102 ± 1", "unit": "%"}, {"measurement": "cloned hA3AR % Stimulation at 10 μM", "setting": "[5]; [35S]GTPγS binding", "value": "14 ± 2", "unit": "% at 10 μM"}, {"measurement": "EC50", "setting": "[5]; cloned hA3AR EC50 (nM)", "value": "> 10000", "unit": "nM"}]}, {"smiles": "OC[C@H]1O[C@@H](n2cnc3c(NCc4cccc(I)c4)ncnc32)[C@H](O)[C@@H]1O", "note": "[Compound 7a, reference compound]", "values": [{"measurement": "Emax", "setting": "[6]", "value": "95 ± 4", "unit": "%"}, {"measurement": "Emax", "setting": "[7]", "value": "91 ± 1", "unit": "%"}, {"measurement": "EC50", "setting": "[7]; [11]", "value": "43.1 ± 10.4", "unit": "nM"}, {"measurement": "agonist efficacy at human A3 receptors", "setting": "[5]; [35S]GTPγS binding", "value": "full A3 agonists"}, {"measurement": "cloned hA3AR % Maximal Stimulation", "setting": "[5]; [35S]GTPγS binding", "value": 100, "unit": "%"}]}, {"smiles": "OC[C@H]1C[C@@H](n2cnc3c(NCc4cccc(I)c4)ncnc32)[C@@H](O)[C@@H]1O", "note": "[Compound 7b, (1′R, 2′R,3′R,4′R)-2,3-(dihydroxy)-4-(hydroxymethyl)-1-(6-(3-idobenzylamino)purine-9-yl)cyclopentane]", "values": [{"measurement": "Ki", "setting": "[2]", "value": 25900, "unit": "nM"}, {"measurement": "% displacement, rA2A", "setting": "[3]; at 100 μM", "value": "<10", "unit": "% 100 μM"}, {"measurement": "Ki", "setting": "[4]", "value": "1960 ± 370", "unit": "nM"}, {"measurement": "A1/A3", "setting": "[4]", "value": 13}, {"measurement": "cloned hA1AR % Stimulation at 10 μM", "setting": "[7]; [35S]GTPγS binding, at 10 μM", "value": "5 ± 2", "unit": "% at 10 μM"}, {"measurement": "EC50", "setting": "[7]; [11]", "value": "> 10000", "unit": "nM"}, {"measurement": "cloned hA3AR % Stimulation at 10 μM", "setting": "[5]; [35S]GTPγS binding", "value": "15 ± 5", "unit": "% at 10 μM"}, {"measurement": "EC50", "setting": "[5]; read-out: cloned hA3AR EC50", "value": "> 10000", "unit": "nM"}]}]}
